In data set [1] the test system is HN-Aβ complex (H1299 cell-conditioned media). Put plainly: ELISA, HN found in a complex with Aβ in H1299 cell-conditioned media. The note with it: ATP 100 μM, 1 mM; increased levels, compared with A549 media; Fig. 5C,D. The class given is binding, human. The protocol:
(§1) Human NSCLC cell lines, A549 (ATCC CCL‐185) and H1299 (ATCC CRL‐5803), were purchased from the American Type Culture Collection (ATCC, Manassas, VA, USA). Cells were seeded as we reported earlier in 5 mL HyClone Dulbecco's modified Eagle's medium/nutrient mixture F‐12 (DMEM/F12) (GE Healthcare Life Sciences, Pittsburgh, PA, USA), supplemented with 10% Fetalgro bovine growth serum (FBS; RMBIO, Missoula, MT, USA), 50 U·mL^−1 penicillin, and […] streptomycin (Invitrogen, Life Technologies, Carlsbad, CA, USA) in 25‐cm^2 tissue culture flasks, and allowed to grow overnight in an incubator at 37 °C, 95% humidity, and 5% CO2. The cells were counted after trypan blue staining, with a hemocytometer.
(§2) ELISAs were carried out as we previously reported. […] TBST was then used to wash the wells 4× before proceeding in one of two ways: (a) biotinylated samples were analyzed by adding 100 µL streptavidin–HRP conjugate in TBST (1 : 2500 dilution) to the samples followed by incubation for 3 h at RT on a shaker, or (b) samples without biotin were analyzed by adding 100 µL TBST containing the primary antibody as per the manufacturer's recommendation, incubating for 3 h at RT on a shaker, followed by washing the wells 4× with TBST. […] The reaction was stopped with 100 µL 2 M H2SO4 after incubating at RT for 0.5–15 min, resulting in a yellow color change, measured by absorbance at 450 nm. […]

Data set [2] deals with HN-Aβ complex (A549 cell-conditioned media). Kind of data set: ELISA, HN found in a complex with Aβ in A549 cell-conditioned media. The class given is binding, human. Conditions: 6E10 or 82E1 on wells, relative to samples without ATP, three experiments in triplicate, Fig. 5A. The protocol: as §1, §2
For a further data set, the system named is Aβ40. Conditions: cited from earlier work. The text has this: Almost all types of cells produce amyloid beta (Aβ), a peptide well recognized for its role in the development and progression of different stages of Alzheimer's disease (AD). The Aβ peptide is ~ 4 kDa and derived from the sequential processing of the higher molecular weight amyloid precursor protein by two membrane‐bound endoproteases, β‐ and γ‐secretase. Different C‐terminal Aβ heterogeneity results from processing by γ‐secretase, where Aβ40 represents the most abundant isoform (~ 90%) as compared to Aβ42 (~ 10%). Self‐assembled Aβ40/42 peptides into amyloid fib ... || Humanin (HN) is a secreted 21‐ to 24‐amino acid mitochondrial‐derived peptide. Certain amino acid residues in HN have been identified to be involved in different functions, including binding to Aβ [55, 56]. […] HN was identified previously as a binding partner of Aβ, likely modulating its aggregation pathways and counteracting its deleterious effects. […] The specific epitopes at the binding interface between HN and Aβ40 were identified, by proteolytic epitope excision and extraction in addition to affinity–mass spectrometric data analysis, to be HN (5–15) and Aβ (17–28). […] Inhibiting the 17–28 region of Aβ reduced aggregation of the neurotoxic amyloid fibrils and related cytotoxicity in SH‐SY5Y, a human neuroblastoma cell ... || (+ 1 further places)

The next data set deals with H1299 cells. The note with it: cited from earlier work.

For the compound `Nc1ncnc2c1ncn2[C@@H]1O[C@H](COP(=O)(O)OP(=O)(O)OP(=O)(O)O)[C@@H](O)[C@H]1O` [ATP, Adenosine triphosphate], in data set [1], the “levels of HN bound to Aβ in the presence of ATP” value is given as “also comparable”. The “increase in the amount of HN bound to Aβ” value in data set [2] (100 μM ATP) was ~ 1.85 fold; in data set [2] (1 mM ATP), ~ 2.5 fold.

As to Humanin [HN], in the data set with Aβ40, the “morphology of Aβ40” value was “from fibrillary to amorphous”. Also, the “cell viability upon ID of HN” value in the data set with H1299 cells (HN immunodepleted from H1299 conditioned media) is listed as “diminished cell viability”. Besides, the “apoptosis upon ID of HN” value with H1299 cells (HN-ID H1299 media) was “increased apoptosis”.
